# Where a name gives a salt, the structure may show the parent alone.
# What was measured:
# [1] = cited from earlier work
# [2] = Solubility evaluation for the solubilizer propylene glycol monocaprylate; details: for Propylene glycol monocaprylate solubility: 25° C., 24 hours, 50 mg as memantine free base added to 1 mL
# Experimental: The resulting mixture was treated in a shaking constant temperature bath at 25° C. for 24 hours.
# <Liquid Chromatography Conditions>
# [3] = Oil phase skin permeability screening, Franz diffusion cell; assay type: in vitro ADME; details: 200 ul of 50 mg/mL salt in propylene glycol monocaprylate, human cadaver skin; for Skin penetration rate: 7 days
# Experimental: A pH 7.4 phosphate buffer containing 10% ethanol and 0.02% sodium azide as an aqueous solution was added to the receptor chamber of the Franz diffusion cell, and with the temperature maintained at 32±0.5° C., it was rotated at 600 rpm and stirred.
Compound,Propylene glycol monocaprylate solubility [2] [µg/mL],other results
"CC12CC3CC(C)(C1)CC(N)(C3)C2 [free base, Memantine free base]",–,"log P, the partition coefficient [1]: 3.28"
"CC12CC3CC(C)(C1)CC(N)(C3)C2.CC12CC3CC(C)(C1)CC(N)(C3)C2.O=C(O)CCCCCC(=O)O [hemi-pimelate, Memantine Hemi-Pimelate]",<5000,–
"CC12CC3CC(C)(C1)CC(N)(C3)C2.CC12CC3CC(C)(C1)CC(N)(C3)C2.O=C(O)CCCCCCC(=O)O [hemi-suberate, Memantine Hemi-Suberate]",<5000,–
"CC12CC3CC(C)(C1)CC(N)(C3)C2 [hydrochloride, Memantine hydrochloride, reference compound]",–,"solubility at 24 h ([2]; 25 °C, oil or lipid, thermodynamic from solid): < 5000 µg/mL"
"CC(=O)CCC(=O)O.CC12CC3CC(C)(C1)CC(N)(C3)C2 [levulinate, Memantine Levulinate, reference compound]",–,Skin permeability for 7 days [3]: 3661 ug/cm2; Skin penetration rate [3]: 22 ug/cm2/hr
Memantine Hemi-Fumarate,<5000,–
Memantine Hemi-Malate,<5000,–
Memantine Hemi-Maleate,<5000,–
Memantine Hemi-Naphthalene Disulfonate,<5000,–
Memantine Myristate,–,Skin permeability for 7 days [3]: 1083 ug/cm2; Skin penetration rate [3]: 6 ug/cm2/hr

# — patent publication US20250000814A1 (DONG-A ST CO., LTD., priority 2021, published 2025)
